Laboratory results as given in patent US20100028485A1, “TALAROMYCES EMERSONII ENZYME SYSTEMS” (priority 2006, published 2010).
Where two headings read alike, the source gives them in different places.

Experiments:
Assay type in all cases: biochemical, Talaromyces emersonii
EG V = test: Effects of metal ions, chemical modification reagents, detergents and potential inhibitors on EG V; design: decrease in activity of EG V by detergent / loss of activity of EG V by detergent: concentration or dose not given beside the values; conditions: for EG V activity after protection experiment (control = 100.0): 1st incubation (30 min) enzyme + reagent, 2nd incubation (30 min) + NBS; for EG V activity, Enzyme + reagent (control = 100.0): Preincubation of enzyme with reagent for 30 min (50 C) prior to addition of substrate; for EG V activity, Substrate + reagent (control = 100.0): Preincubation of substrate with reagent for 30 min (50 C) prior to addition of enzyme
Description: (§1) Substrate specificity on various polysaccharides and synthetic glycosides was evaluated by 15 measuring activity against a wide variety of carbohydrates (BBG, lichenan, CMC, other polysaccharides and synthetic glycosides) using the normal β-glucanase assay procedure. • Effects Of Metal Ions, Chemical Modification Reagents And Potential Inhibitors A range of monovalent, divalent and heavy metal ions, at final assay concentrations of 1.0 mM, were investigated for their potential effects on the activities of EG V, EG VI and EG VII, by incubating the enzymes with the chemicals and then conducting the normal enzyme assay. Finally, the inhibitor effects of glycosides, such as disaccharides, lactones and flavanoid glycosides on the purified enzymes were examined. Specified concentrations of each glycoside were included in normal assay cocktails and residual activity determined by comparison with controls (no glycoside present).
(§2) Activity was expressed as a % relative to a control (no metal ion present in incubation mixture). In general, heavy metal ions are thought to inactivate enzymes by forming covalent salts with cysteine, histidine or carboxyl groups. […] A selection of reagents known to modify amino acid R-groups in proteins were tested for their effects on EG V, EG VI and EG VII, both in the absence and presence of substrate (substrate-protective effects could be observed in this manner) (see Table 6).

EG VI = test: Effects of metal ions, chemical modification reagents, detergents and potential inhibitors on EG VI; conditions: for EGVI activity after protection experiment (control = 100.0): 1st incubation (30 min) enzyme + reagent, 2nd incubation (30 min) + NBS; for EV VI activity, Enzyme + reagent (control = 100.0): Preincubation of enzyme with reagent for 30 min (50 C) prior to addition of substrate; for EGVI activity, Substrate + reagent (control = 100.0): Preincubation of substrate with reagent for 30 min (50 C) prior to addition of enzyme; for increase in activity of EG VI: 1 mM metal ion, relative to control without metal ion
Description: as §1, §2

EG VII = test: Effects of metal ions, chemical modification reagents, detergents and potential inhibitors on EG VII; conditions: for EG VII activity after protection experiment (control = 100.0): 1st incubation (30 min) enzyme + reagent, 2nd incubation (30 min) + NBS; for EG VII activity, Enzyme + reagent (control = 100.0): Preincubation of enzyme with reagent for 30 min (50 C) prior to addition of substrate; for EG VII activity, Substrate + reagent (control = 100.0): Preincubation of substrate with reagent for 30 min (50 C) prior to addition of enzyme
Description: as §1, §2

EG V, EG VI and EG VII = test: Effects of metal ions, reagents, phenolics and glycosides stated for all three enzymes; conditions: for effect of phenolic substances on enzyme activity: pre-incubation of enzyme with compound in the absence of substrate; for effect of metal ion on activity of all three enzymes: 1 mM metal ion
Description: as §1, §2

[1] = 1 mM metal ion, relative to control without metal ion
[2] = pre-incubated with enzyme in advance of the addition of substrate

Row | Compound | EG V activity, Enzyme + reagent (control = 100.0) (EG V) | EG V activity, Substrate + reagent (control = 100.0) (EG V) | EV VI activity, Enzyme + reagent (control = 100.0) (EG VI) | EGVI activity, Substrate + reagent (control = 100.0) (EG VI) | EG VII activity, Enzyme + reagent (control = 100.0) (EG VII) | EG VII activity, Substrate + reagent (control = 100.0) (EG VII) | other results
1 | OC(CS)C(O)CS (racemic) [DL-DTT] | 218.9 | 264.3 | 514.3 | 915.5 | 575.0 | 348.6 | EG V activity after protection experiment (control = 100.0) (EG V): 204.3; EGVI activity after protection experiment (control = 100.0) (EG VI): 140.0; EG VII activity after protection experiment (control = 100.0) (EG VII): 94.6
2 | [Cl-].c1ccc(-c2nn(-c3ccccc3)[n+](-c3ccccc3)n2)cc1 [2,3,5-Triphenyltetrazolium Chloride] | 97.5 | 89.1 | 97.6 | 97.4 | 98.5 | 100.0 | 
3 | Oc1cc(O)c2c(c1)O[C@H](c1ccc(O)c(O)c1)[C@@H](O)C2 [(+)catechin] |  |  |  |  |  |  | effect of phenolic substances on enzyme activity (EG V, EG VI and EG VII): did not have a marked inhibitory effect
4 | Oc1cc(O)c2c(c1)O[C@H](c1ccc(O)c(O)c1)[C@H](O)C2 [(−)epicatechin] |  |  |  |  |  |  | effect of phenolic substances on enzyme activity (EG V, EG VI and EG VII): did not have a marked inhibitory effect
5 | [Ag+] [Ag^+] |  |  |  |  |  |  | effect of metal ion on activity of all three enzymes (EG V, EG VI and EG VII): markedly decreased activity
6 | [Ba+2] [Ba^2+] |  |  |  |  |  |  | decrease in activity of EG V (EG V; [1]): 16.5%; increase in activity of EG VI (EG VI): 37.6%
7 | [Ca+2] [Ca^2+] |  |  |  |  |  |  | decrease in activity of EG V (EG V; [1]): 21.5-24.6%; increase in activity of EG VI (EG VI): 10%; enhancement of EG VII activity by SO4^2− salt relative to corresponding Cl^− salt (EG VII; 1 mM): ~2 fold
8 | N[C@@H](CS)C(=O)O [Cysteine] | 163.8 | 237.8 | 170.4 | 370.20 | 196.5 | 367.7 | EG V activity after protection experiment (control = 100.0) (EG V): 117.0; EGVI activity after protection experiment (control = 100.0) (EG VI): 217.0; EG VII activity after protection experiment (control = 100.0) (EG VII): 167.0
9 | C[S+](C)[O-] [Dimethylsuphoxide] | 125.5 | 93.6 | 124.3 | 141.7 | 194.0 | 100.0 | 
10 | O[C@H](CS)[C@@H](O)CS [Dithioerythritol] | 270.6 | 271.9 | 657.2 | 917.90 | 773.8 | 360.9 | 
11 | [Hg+2] [Hg^2+] |  |  |  |  |  |  | effect of metal ion on activity of all three enzymes (EG V, EG VI and EG VII): Almost total inhibition
12 | [K+] [K^+] |  |  |  |  |  |  | increase in activity of EG VII (EG VII): 20%
13 | [Mo] [Mo^6+] |  |  |  |  |  |  | effect of metal ion on activity of all three enzymes (EG V, EG VI and EG VII): enhanced the activity
14 | O=C1CCC(=O)N1Br [N-Bromosuccinimide (NBS), N-Bromosuccinimide] | 0.0 | 0.0 | 0.0 | 0.0 | 0.0 | 0.0 | EG V activity after protection experiment (control = 100.0) (EG V): 0.0; EGVI activity after protection experiment (control = 100.0) (EG VI): 0.0; EG VII activity after protection experiment (control = 100.0) (EG VII): 0.0
15 | CCN1C(=O)C=CC1=O [N-ethylmaleimide] |  |  |  |  |  |  | inhibition by sulphydryl reagents (EG V, EG VI and EG VII; in the presence or absence of substrate): little or no inhibition
16 | [Na+] [Na^+] |  |  |  |  |  |  | increase in activity of EG V (EG V; [1]): > 39%

Row | Compound | EG V activity, Enzyme + reagent (control = 100.0) (EG V) | EG V activity, Substrate + reagent (control = 100.0) (EG V) | EV VI activity, Enzyme + reagent (control = 100.0) (EG VI) | EGVI activity, Substrate + reagent (control = 100.0) (EG VI) | EG VII activity, Enzyme + reagent (control = 100.0) (EG VII) | EG VII activity, Substrate + reagent (control = 100.0) (EG VII) | other results
17 | [BH4-].[Na+] [Sodium borohydride] | 96.1 | 81.5 | 125.0 | 104.8 | 194.0 | 82.8 | 
18 | [Na+].[O-][I+3]([O-])([O-])[O-] [Sodium periodate] | 181.0 | 283.3 | 357.1 | 1001.2 | 300.0 | 469.7 | 
19 | O=C(O)CS [Thioglycolic acid] | 211.1 | 148.1 | 187.1 | 269.0 | 188.1 | 150.0 | 
20 | CC[n+]1ccc(-c2cccc(S(=O)(=O)[O-])c2)o1 [Woodward's Reagent K] | 162.7 | 121.1 | 280.0 | 266.7 | 305.9 | 143.0 | 
21 | [Zn+2] [Zn^230] |  |  |  |  |  |  | effect of metal ion on activity of all three enzymes (EG V, EG VI and EG VII): enhanced the activity
22 | OC[C@H]1O[C@@H](Oc2ccc(O)cc2)[C@H](O)[C@@H](O)[C@@H]1O [arbutin] |  |  |  |  |  |  | effect of glycosides/disaccharides on activity of EG V-VII (EG V, EG VI and EG VII): no apparent effect
23 | O=C(O)/C=C/c1ccc(O)c(O)c1 [caffeic acid] |  |  |  |  |  |  | effect of phenolic substances on enzyme activity (EG V, EG VI and EG VII): did not have a marked inhibitory effect; effect of phenolic substances on enzyme activity (EG V, EG VI and EG VII; listed as cafeic acid): markedly activated
24 | O=C[C@H](O)[C@@H](O)[C@H](O[C@@H]1O[C@H](CO)[C@@H](O)[C@H](O)[C@H]1O)[C@H](O)CO [cellobiose] |  |  |  |  |  |  | concentrations that markedly inhibited all three enzymes (EG V, EG VI and EG VII): 50 to 75 mM
25 | O=c1ccc2cc(O[C@@H]3O[C@H](CO)[C@@H](O)[C@H](O)[C@H]3O)c(O)cc2o1 [esculin] |  |  |  |  |  |  | effect of glycosides/disaccharides on activity of EG V-VII (EG V, EG VI and EG VII): no apparent effect
26 | OC[C@H]1O[C@@H](O[C@H]2[C@H](O)[C@@H](O)C(O)O[C@@H]2CO)[C@H](O)[C@@H](O)[C@H]1O (stereo partly shown) [lactose] |  |  |  |  |  |  | concentrations inhibiting EG V (EG V): > 75 mM
27 | O=Cc1ccccc1C=O [o-Phthaldialdehyde] | 106.1 | 94.6 | 100.0 | 139.0 | 155.0 | 98.8 | 
28 | O=C(O)c1cc[c]([Hg][Cl])cc1 [p-Chloromercuribenzoate] | 125.4 | 89.7 | 115.4 | 107.1 | 105.4 | 91.6 | 
29 | C[C@H](CCC(=O)NCCS(=O)(=O)O)[C@H]1CC[C@H]2[C@@H]3[C@H](O)C[C@@H]4C[C@H](O)CC[C@]4(C)[C@H]3C[C@H](O)[C@]12C [taurocholic acid] |  |  |  |  |  |  | decrease in activity of EG V by detergent (EG V): 47.7%
30 | C[C@H](CCC(=O)NCCS(=O)(=O)O)[C@H]1CC[C@H]2[C@@H]3CC[C@@H]4C[C@H](O)CC[C@]4(C)[C@H]3C[C@H](O)[C@]12C [taurodeoxycholic acid] |  |  |  |  |  |  | decrease in activity of EG V by detergent (EG V; [2]): 22.7%
31 | Tween 20 |  |  |  |  |  |  | decrease in activity of EG V by detergent (EG V; [2]): 12.7%
32 | Tween 80 |  |  |  |  |  |  | decrease in activity of EG V by detergent (EG V; [2]): 30.8%; loss of activity of EG V by detergent (EG V; simultaneous incubation with substrate): 34.2%
